pIC50: −log10 of the molar value.
What follows are compounds tested on PMA-differentiated THP-1 cells (assay: IL-1β production in PMA-differentiated THP-1 cells stimulated with gramicidin (hTHP-1 assay containing 2% fetal bovine serum; Procedures 1 and 2)). Conditions: Homo sapiens, THP-1, Table B1; 2% fetal bovine serum; class symbols; read-out: Average IC50 of compounds in hTHP-1 assay: hTHP-1 IC50.
Format: cell-based, human
Procedure, shortened: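 Secreted IL-1β, read by HTRF, after gramicidin challenge (5 μM, 2 h) of THP-1 cells differentiated with PMA (20 ng/ml, 16-18 h) and plated at 50,000 cells/well in 2% FBS medium. Compounds, 0.0017-100 μM final with 0.37% DMSO, were added 1 h before stimulation.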

Compound	pIC50
CN(C)Cc1ccc(S(N)(=O)=NC(=O)Nc2c3c(nc4c2CCC4)CCC3)cc1 (single isomer, unassigned) [Compound 130b, (R) or (S)-4-((dimethylamino)methyl)-N′-((1,2,3,5,6,7-hexahydro-dicyclopenta[b,e]pyridin-8-yl)carbamoyl)benzene-sulfonamidamide]	5.30 to 6.00
CC(C)c1ncc(F)c(C(C)C)c1NC(=O)N=S(N)(=O)c1ccc(CN(C)C)cc1 (single isomer, unassigned) [Compound 132a, (R) or (S)-4-((dimethyl-amino)methyl)-N′-((5-fluoro-2,4-diisopropylpyridin-3-yl)carbamoyl)benzene-sulfonimidamide]	4.52 to 5.30
CC1CCc2c1nc1c(c2NC(=O)N=S(N)(=O)c2ccc(CN(C)C)cc2)CCC1 (single isomer, unassigned) [Compound 134ba, (R,R) or (R,S)-4-((dimethyl-amino)methyl)-N′-((3-methyl-1,2,3,5,6,7-hexa-hydrodicyclo-penta[b,e]pyridin-8-yl)carbamoyl)benzene-sulfonimidamide]	5.30 to 6.00
CC1CCc2c1nc1c(c2NC(=O)N=S(N)(=O)c2ncc(C(C)(C)O)s2)CCC1 (single isomer, unassigned) [Compound 140aa, (R,R) or (R,S)-5-(2-hydroxypropan-2-yl)-N′-((3-methyl-1,2,3,5,6,7-hexa-hydrodicyclo-penta[b,e]pyridin-8-yl)carbamoyl)thiazole-2-sulfonimidamide]	6.70 to 7.40

Same assay, conditions: Homo sapiens, THP-1, Table B1; 2% fetal bovine serum; numeric bounds; read-out: Average IC50 of compounds in hTHP-1 assay: hTHP-1 IC50

Compound	pIC50
CN(C)Cc1ccc(S(N)(=O)=NC(=O)Nc2c3c(nc4c2CCC4)CCC3)cc1 (single isomer, unassigned) [Compound 130a, (S) or (R)-4-((dimethylamino)methyl)-N′-((1,2,3,5,6,7-hexahydrodicyclo-penta[b,e]pyridin-8-yl)carbamoyl)benzene-sulfonamidamide]	< 4.52
CC(C)c1ncc(F)c(C(C)C)c1NC(=O)N=S(N)(=O)c1ccc(CN(C)C)cc1 (single isomer, unassigned) [Compound 132b, (S) or (R)-4-((dimethyl-amino)methyl)-N′-((5-fluoro-2,4-diisopropylpyridin-3-yl)carbamoyl)benzene-sulfonimidamide]	< 4.52
Cc1nc(C)c(C)c(NC(=O)N=S(N)(=O)c2cnc(C(C)(C)O)s2)c1C (single isomer, unassigned) [Compound 133a, (R) or (S)-2-(2-hydroxypropan-2-yl)-N′-((2,3,5,6-tetramethylpyridin-4-yl)carbamoyl)thiazole-5-sulfonimidamide]	< 4.52
CC1CCc2c1nc1c(c2NC(=O)N=S(N)(=O)c2ccc(CN(C)C)cc2)CCC1 (single isomer, unassigned) [Compound 134aa, (S,S) or (S,R)-4-((di-methylamino)methyl)-N′-((3-methyl-1,2,3,5,6,7-hexahydrodicyclo-penta[b,e]pyridin-8-yl)carbamoyl)benzene-sulfonimidamide]	< 4.52

Same assay, conditions: Table B1; 2% fetal bovine serum; class symbols; read-out: Average IC50 of compounds in hTHP-1 assay: hTHP-1 IC50

Compound	pIC50
CC1CCc2c1nc1c(c2NC(=O)N=S(N)(=O)c2ccn(C(C)C)n2)CCC1 (single isomer, unassigned) [Compound 129ba, (R,S) or (R,R)-1-isopropyl-N′-((3-methyl-1,2,3,5,6,7-hexa-hydrodicyclo-penta[b,e]pyridin-8-yl)carbamoyl)-1H-pyrazole-3-sulfonimidamide]	5.30 to 6.00
CC1CCc2c1nc1c(c2NC(=O)N=S(N)(=O)c2ccn(C(C)C)n2)CCC1 (single isomer, unassigned) [Compound 129bb, (S,R) or (S,S)-1-isopropyl-N′-((3-methyl-1,2,3,5,6,7-hexa-hydrodicyclo-penta[b,e]pyridin-8-yl)carbamoyl)-1H-pyrazole-3-sulfonimidamide]	4.52 to 5.30
CC1CCc2c1nc1c(c2NC(=O)N=S(N)(=O)c2cc(C(C)(C)O)cs2)CCC1C (single isomer, unassigned) [Compound 131c, (S,R,S) and (S,S,R) or (S,R,R) or (S,S,S)-N′-((3,5-dimethyl-1,2,3,5,6,7-hexa-hydrodicyclo-penta[b,e]pyridin-8-yl)carbamoyl)-4-(2-hy-droxypropan-2-yl)thiophene-2-sulfonimidamide]	4.52 to 5.30
CC1CCc2c1nc1c(c2NC(=O)N=S(N)(=O)c2cc(C(C)(C)O)cs2)CCC1C (single isomer, unassigned) [Compound 131d, (S,R,R) or (S,S,S) or (S,R,S) and (S,S,R)-N′-((3,5-dimethyl-1,2,3,5,6,7-hexa-hydrodicyclopenta[b,e]pyridin-8-yl)carbamoyl)-4-(2-hydroxypropan-2-yl)thio-phene-2-sulfonimidamide]	4.52 to 5.30
CC1CCc2c1nc1c(c2NC(=O)N=S(N)(=O)c2cc(C(C)(C)O)cs2)CCC1C (single isomer, unassigned) [Compound 131e, (S,S,S) or (S,R,S) and (S,S,R) or (S,R,R)-N′-((3,5-dimethyl-1,2,3,5,6,7-hexahydro-dicyclopenta[b,e]pyridin-8-yl)carbamoyl)-4-(2-hydroxypropan-2-yl)thio-phene-2-sulfonimidamide]	4.52 to 5.30
CC1CCc2c1nc1c(c2NC(=O)N=S(N)(=O)c2cc(C(C)(C)O)cs2)CCC1C (single isomer, unassigned) [Compound 131g, (R,R,R) or (R,S,S)-N′-((3,5-dimethyl-1,2,3,5,6,7-hexa-hydrodicyclo-penta[b,e]pyridin-8-yl)carbamoyl)-4-(2-hydroxypropan-2-yl)thio-phene-2-sulfonimidamide]	6.00 to 6.70
CC1CCc2c1nc1c(c2NC(=O)N=S(N)(=O)c2ccc(CN(C)C)cc2)CCC1 (single isomer, unassigned) [Compound 134bb, (R,S) or (R,R)-4-((dimethyl-amino)methyl)-N′-((3-methyl-1,2,3,5,6,7-hexa-hydrodicyclo-penta[b,e]pyridin-8-yl)carbamoyl)benzene-sulfonamidamide]	4.52 to 5.30
CC(C)(O)c1ncc(S(N)(=O)=NC(=O)Nc2c3c(nc4c2CCC42CC2)CCC3)s1 (single isomer, unassigned) [Compound 136a, (S) or (R)-2-(2-hydroxy-propan-2-yl)-N′-((1′,5′,6′,7′-tetrahydro-2′H-spiro[cyclopropane-1,3′-dicyclopenta[b,e]pyridin]-8′-yl)carbamoyl)thiazole-5-sulfonimidamide]	5.30 to 6.00
CC(C)(O)c1ncc(S(N)(=O)=NC(=O)Nc2c3c(nc4c2CCC42CC2)CCC3)s1 (single isomer, unassigned) [Compound 136b, (R) or (S)-2-(2-hydroxy-propan-2-yl)-N′-((1′,5′,6′,7′-tetrahydro-2′H-spiro[cyclopropane-1,3′-dicyclopenta[b,e]pyridin]-8′-yl)carbamoyl)thiazole-5-sulfonimidamide]	6.70 to 7.40
CC1CCc2c1nc1c(c2NC(=O)N=S(N)(=O)c2ncc(C(C)(C)O)s2)CCC1 (single isomer, unassigned) [Compound 140a, (R,R/S) or (S,R/S)-5-(2-hydroxypropan-2-yl)-N′-((3-methyl-1,2,3,5,6,7-hexa-hydrodicyclo-penta[b,e]pyridin-8-yl)carbamoyl)thiazole-2-sulfonimidamide]	6.70 to 7.40
CC1CCc2c1nc1c(c2NC(=O)N=S(N)(=O)c2ncc(C(C)(C)O)s2)CCC1 (single isomer, unassigned) [Compound 140ab, (R,S) or (R,R)-5-(2-hydroxypropan-2-yl)-N′-((3-methyl-1,2,3,5,6,7-hexa-hydrodicyclo-penta[b,e]pyridin-8-yl)carbamoyl)thiazole-2-sulfonimidamide]	5.30 to 6.00
CC1CCc2c1nc1c(c2NC(=O)N=S(N)(=O)c2ncc(C(C)(C)O)s2)CCC1 (single isomer, unassigned) [Compound 140b, (S,R/S) or (R,R/S)-5-(2-hydroxypropan-2-yl)-N′-((3-methyl-1,2,3,5,6,7-hexa-hydrodicyclo-penta[b,e]pyridin-8-yl)carbamoyl)thiazole-2-sulfonimidamide]	4.52 to 5.30
CC1CCc2c1nc1c(c2NC(=O)N=S(N)(=O)c2ncc(C(C)(C)O)s2)CCC1 (single isomer, unassigned) [Compound 140ba, (S,S) or (S,R)-5-(2-hydroxypropan-2-yl)-N′-((3-methyl-1,2,3,5,6,7-hexa-hydrodicyclo-penta[b,e]pyridin-8-yl)carbamoyl)thiazole-2-sulfonimidamide]	4.52 to 5.30

Same assay, conditions: Table B1; 2% fetal bovine serum; numeric bounds; read-out: Average IC50 of compounds in hTHP-1 assay: hTHP-1 IC50

Compound	pIC50
Cc1nc(C)c(C)c(NC(=O)N=S(N)(=O)c2cnc(C(C)(C)O)s2)c1C (single isomer, unassigned) [Compound 133b, (S) or (R)-2-(2-hydroxypropan-2-yl)-N′-((2,3,5,6-tetramethylpyridin-4-yl)carbamoyl)thiazole-5-sulfonimidamide]	< 4.52
CC1CCc2c1nc1c(c2NC(=O)N=S(N)(=O)c2ccc(CN(C)C)cc2)CCC1 (single isomer, unassigned) [Compound 134ab, (S,R) or (S,S)-4-((di-methylamino)methyl)-N′-((3-methyl-1,2,3,5,6,7-hexa-hydrodicyclo-penta[b,e]pyridin-8-yl)carbamoyl)benzene-sulfonimidamide]	< 4.52
CCc1cc(NC(=O)N=S(N)(=O)c2cnc(C(C)(C)O)s2)c2c(n1)CCC2 (single isomer, unassigned) [Compound 137a, (R) or (S)-N′-((2-ethyl-6,7-dihydro-5H-cyclopenta[b]pyridin-4-yl)carbamoyl)-2-(2-hydroxypropan-2-yl)thiazole-5-sulfonimidamide]	< 5.00
CCc1cc(NC(=O)N=S(N)(=O)c2cnc(C(C)(C)O)s2)c2c(n1)CCC2 (single isomer, unassigned) [Compound 137b, (S) or (R)-N′-((2-ethyl-6,7-dihydro-5H-cyclopenta[b]pyridin-4-yl)carbamoyl)-2-(2-hydroxypropan-2-yl)thiazole-5-sulfonimidamide]	< 4.52
